Three molecules from publication PMC11602115 (Journal of Medicinal Chemistry, 2017) can be followed below.

Like-named read-outs stand apart in the source and are kept apart here. A value given as a limit tells only on which side of the number the result lay.

In assay [1] the target is T1, rat IP (Rattus norvegicus, UniProt P43253). Briefly: Radioligand binding, rat IP ([3H]-iloprost). Further details: expressed in transfected cells; host or cells: CHO-K1 (crude membranes). The procedure: (§1) CHO-K1 cells expressing recombinant IP receptors were harvested, washed with ice-cold phosphate buffered saline, pH 7.4 (PBS), and then centrifuged at 48 000g for 20 min at 4 °C. The resulting cell pellet was then resuspended in ice-cold PBS containing 20 mM HEPES, pH 7.4, and 0.1 mM EDTA, homogenized on ice using a Brinkman Polytron, and centrifuged (48 000g for 20 min at 4 °C). This resuspension and centrifugation process was repeated one further time. Crude membrane pellets were stored at −80 °C until used for radioligand binding assays.
(§2) Assay incubations were terminated by rapid filtration through PerkinElmer GF/C filtration plates pretreated with 0.3% PEI, under vacuum pressure using a 96-well Packard filtration apparatus, followed by multiple washes with ice-cold wash buffer (PBS containing 20 mM HEPES and 0.1 mM EDTA, pH 7.4). Plates were then dried at 45 °C for a minimum of 2 h. Finally, 25 μL of BetaScint scintillation cocktail was added to each well and plates were counted in a Packard TopCount scintillation counter. In each competition study, test compounds were dosed at 10 concentrations with triplicate determinations at each test concentration. A reference compound, typically iloprost, was included in every runset for quality control purposes.

Assay [2] concerns the target dog IP (Canis lupus familiaris, UniProt A0A8I3MUB8). Briefly: Radioligand binding, dog IP ([3H]-iloprost). The protocol: as §1, §2
For assay [3], the target named is T2, EP3v6 (Homo sapiens, UniProt P43115).
T2 sequence (P43115 1-374 isoform P43115-4): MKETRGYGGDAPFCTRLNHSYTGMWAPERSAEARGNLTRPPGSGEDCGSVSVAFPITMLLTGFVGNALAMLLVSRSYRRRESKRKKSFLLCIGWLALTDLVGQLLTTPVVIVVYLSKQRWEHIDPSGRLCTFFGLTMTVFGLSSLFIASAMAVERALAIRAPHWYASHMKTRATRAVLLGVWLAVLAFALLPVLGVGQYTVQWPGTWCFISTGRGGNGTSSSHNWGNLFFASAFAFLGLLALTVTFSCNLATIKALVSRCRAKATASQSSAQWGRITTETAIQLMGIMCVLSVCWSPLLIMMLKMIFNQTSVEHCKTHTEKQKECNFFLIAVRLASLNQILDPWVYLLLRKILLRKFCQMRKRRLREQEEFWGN
Kind of assay: Radioligand binding, EP3v6 ([3H]-PGE2). Further details: purchased MDS Pharma (Taiwan) and CEREP (France), contract assays. To be noted: for Ki: cloned human receptor. The protocol:
Additional (non-IP) receptor binding assays were carried out by MDS Pharma (Taiwan) and CEREP (France).

The target in assay [4] is EP4 (Homo sapiens, UniProt P35408). Kind of assay: cAMP HTRF agonist assay, EP4. Format: cell-based. Particulars: for agonist activity at EP4: HTRF cAMP functional assay. An excerpt: Table Sup2: Data with some comparator compounds in functional assays.
Compound DP1 EP1 EP2 EP3v6 EP4
EC50, µµµµM (% I.A) EC50, µµµµM (% I.A) EC50, µµµµM (% I.A) EC50, µµµµM (% I.A) EC50, µµµµM (% I.A)
n = 3 n = 2 n = 8 n = 6 n = 6 […]
Background: Time-resolved FRET reads energy transfer from a long-lived donor to a nearby acceptor.

For assay [5], the target named is T3, human DP1 receptor (Homo sapiens, UniProt Q13258).
T3 construct: expressed in transfected cells
T3 sequence (Q13258 1-359): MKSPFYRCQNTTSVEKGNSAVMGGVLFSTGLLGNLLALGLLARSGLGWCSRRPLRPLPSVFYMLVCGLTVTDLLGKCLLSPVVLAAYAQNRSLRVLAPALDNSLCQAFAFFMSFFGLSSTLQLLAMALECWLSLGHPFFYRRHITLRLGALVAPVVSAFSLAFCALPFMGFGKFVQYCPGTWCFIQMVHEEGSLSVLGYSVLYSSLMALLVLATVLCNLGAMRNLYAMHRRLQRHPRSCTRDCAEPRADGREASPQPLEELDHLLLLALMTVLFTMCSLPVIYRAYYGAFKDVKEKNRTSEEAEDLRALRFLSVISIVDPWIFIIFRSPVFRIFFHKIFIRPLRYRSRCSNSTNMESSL
Briefly: HTRF cAMP assay, recombinant human DP1 receptor in CHO-K1 cells. Format: cell-based. To be noted: for Emax: CHO-K1, intrinsic activity relative to 1 μM PGD2, read-out: hDP1 % IA; for EC50: HTRF (cAMP) human DP1 receptor assay, mean of at least three determinations, read-out: EC50 hDP1; for DP1 % I.A: cAMP HTRF agonist assay (Gs), Table Sup2.

Assay [6] addresses T1, rat IP. Kind of assay: HTRF cAMP assay, recombinant rat IP receptor. Format: cell-based. Further details: expressed in transfected cells. To be noted: for EC50: HTRF (cAMP) rat IP receptor assay, mean of at least three determinations; for Emax: read-out: rIP % IA.
Assay [7] deals with IP (Homo sapiens, UniProt P43119). Briefly: HTRF cAMP assay, recombinant human IP receptor stably expressed in CHO-K1 cells. It counts as cell-based. The arrangement: expressed in transfected cells.
For assay [8], the target named is EP2 (Homo sapiens, UniProt P43116). Briefly: cAMP HTRF agonist assay, EP2. It counts as cell-based. To be noted: for agonist activity at EP2: HTRF cAMP functional assay. An excerpt:
Table Sup2: Data with some comparator compounds in functional assays. […]

Where [9] appears, read: read-out: Ki dog IP ([3H]-iloprost).

Chain of dog IP (A0A8I3MUB8 1-381): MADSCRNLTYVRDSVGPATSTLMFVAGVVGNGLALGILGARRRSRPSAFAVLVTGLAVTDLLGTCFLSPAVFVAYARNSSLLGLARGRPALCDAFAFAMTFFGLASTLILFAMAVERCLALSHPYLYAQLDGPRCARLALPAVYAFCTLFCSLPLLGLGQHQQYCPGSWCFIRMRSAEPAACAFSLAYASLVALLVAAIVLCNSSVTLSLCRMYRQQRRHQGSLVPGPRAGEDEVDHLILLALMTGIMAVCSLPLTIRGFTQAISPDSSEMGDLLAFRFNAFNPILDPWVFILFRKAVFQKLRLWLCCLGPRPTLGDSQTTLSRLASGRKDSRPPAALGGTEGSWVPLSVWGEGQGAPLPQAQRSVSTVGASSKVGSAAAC
Chain of EP2 (P43116 whole entry): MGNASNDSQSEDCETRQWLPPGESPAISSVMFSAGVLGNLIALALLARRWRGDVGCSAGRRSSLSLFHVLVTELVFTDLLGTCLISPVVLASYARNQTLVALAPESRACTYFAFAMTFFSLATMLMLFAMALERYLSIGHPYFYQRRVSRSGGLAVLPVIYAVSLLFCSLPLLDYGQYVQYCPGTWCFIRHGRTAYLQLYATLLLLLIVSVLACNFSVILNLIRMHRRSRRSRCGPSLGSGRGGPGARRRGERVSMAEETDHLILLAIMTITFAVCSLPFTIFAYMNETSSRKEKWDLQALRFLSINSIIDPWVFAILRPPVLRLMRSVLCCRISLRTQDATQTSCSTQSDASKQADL
Chain of EP4 (P35408 whole entry): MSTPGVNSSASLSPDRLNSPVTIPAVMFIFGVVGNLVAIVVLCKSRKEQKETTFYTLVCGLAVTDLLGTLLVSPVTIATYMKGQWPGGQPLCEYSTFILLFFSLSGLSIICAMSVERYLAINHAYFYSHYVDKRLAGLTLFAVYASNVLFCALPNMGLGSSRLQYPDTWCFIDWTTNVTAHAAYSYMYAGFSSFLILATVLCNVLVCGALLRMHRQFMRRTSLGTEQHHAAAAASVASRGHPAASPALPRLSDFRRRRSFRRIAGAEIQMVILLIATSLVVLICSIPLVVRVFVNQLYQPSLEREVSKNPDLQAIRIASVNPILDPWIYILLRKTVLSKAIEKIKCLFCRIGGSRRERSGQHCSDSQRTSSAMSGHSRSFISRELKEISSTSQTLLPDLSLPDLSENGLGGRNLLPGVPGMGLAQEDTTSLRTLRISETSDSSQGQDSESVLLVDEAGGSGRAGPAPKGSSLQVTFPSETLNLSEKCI
T1 sequence (P43253 whole entry): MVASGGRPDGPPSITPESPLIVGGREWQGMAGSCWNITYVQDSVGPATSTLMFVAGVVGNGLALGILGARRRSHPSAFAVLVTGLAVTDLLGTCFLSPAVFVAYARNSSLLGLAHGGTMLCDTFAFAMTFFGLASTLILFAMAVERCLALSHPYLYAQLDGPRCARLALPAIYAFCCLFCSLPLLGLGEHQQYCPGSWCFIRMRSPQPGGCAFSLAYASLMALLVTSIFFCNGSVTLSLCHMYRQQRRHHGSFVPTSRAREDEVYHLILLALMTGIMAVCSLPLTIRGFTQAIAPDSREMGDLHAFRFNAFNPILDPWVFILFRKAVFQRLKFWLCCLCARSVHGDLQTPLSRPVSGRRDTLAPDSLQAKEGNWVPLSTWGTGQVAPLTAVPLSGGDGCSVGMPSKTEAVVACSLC
Chain of IP (P43119 whole entry): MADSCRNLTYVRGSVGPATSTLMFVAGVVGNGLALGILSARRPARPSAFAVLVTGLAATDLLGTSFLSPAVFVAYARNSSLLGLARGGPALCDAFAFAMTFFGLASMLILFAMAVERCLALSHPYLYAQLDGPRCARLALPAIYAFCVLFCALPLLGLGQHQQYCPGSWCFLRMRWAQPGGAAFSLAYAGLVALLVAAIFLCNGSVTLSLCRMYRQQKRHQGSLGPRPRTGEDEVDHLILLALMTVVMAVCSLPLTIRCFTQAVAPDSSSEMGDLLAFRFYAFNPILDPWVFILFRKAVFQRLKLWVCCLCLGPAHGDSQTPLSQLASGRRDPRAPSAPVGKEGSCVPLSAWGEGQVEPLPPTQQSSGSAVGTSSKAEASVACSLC

Usually Ki stands for a measure of affinity in units of concentration, obtained from inhibition or displacement. As usually defined, the EC50 is the concentration at which the effect is half-maximal. `O=C(O)COC[C@H]1CC[C@H](COC(=O)N(c2ccccc2)c2ccc(Cl)cc2)CC1` [5c, Sodium 2-(((1r,4r)-4-(((4-Chlorophenyl)(phenyl)carbamoyloxy)methyl)cyclohexyl)methoxy)acetate]: the Ki in assay [1] worked out at 0.076 µM; in assay [2] (setting [9]) it was 0.256 µM; in assay [3] it was 0.143 µM. Further, the “agonist activity at EP4” value in assay [4] was “no significant agonist activity”. Further, the EC50 in assay [4] (cAMP HTRF agonist assay) was > 10 µM; in assay [5] it was 0.85 µM; in assay [6], 0.53 µM; in assay [8] (cAMP HTRF agonist assay), > 10 µM. Moreover, the Emax in assay [5] was 52%; in assay [6], 88%; in assay [7] (CHO-K1, read-out: hIP % IA), 85%. For the same molecule, the “DP1 % I.A” value in assay [5] is 52%. In addition, the “agonist activity at EP2” value in assay [8] is recorded as “no significant agonist activity”.
Consider `O=C(O)COC[C@H]1CC[C@H](COC(=O)N(c2ccccc2)c2cccc(F)c2)CC1` [5g, 2-(((1r,4r)-4-(((3-Fluorophenyl)(phenyl)carbamoyloxy)methyl)cyclohexyl)methoxy)acetic Acid], for which the inhibition constant (Ki) in assay [1] came to 0.051 µM; in assay [2] (setting [9]) it was 0.183 µM; in assay [3], 0.21 µM. Besides, the “EP3/IP binding selectivity ratio” value in assay [3] (human EP3v6 Ki versus human IP Ki) is reported as 30- to 50 fold. Further, in assay [4], the “agonist activity at EP4” value is “no significant agonist activity”. In addition, the Emax in assay [5] stood at 61%; in assay [6], 83%; in assay [7] (CHO-K1; read-out: hIP % IA), 85%. The figures for the EC50 in assay [5], in assay [6] and in assay [7] (HTRF (cAMP) human IP receptor assay; mean of at least three determinations) were 2.76 µM, 0.284 µM and 0.0087 µM, respectively. Also, the “agonist activity at EP2” value in assay [8] is recorded as “no significant agonist activity”.
Regarding `CC#CCC(C)[C@H](O)/C=C/[C@@H]1[C@H]2C/C(=C/CCCC(=O)O)C[C@H]2C[C@H]1O` (some centres unmarked) [iloprost], the Ki in assay [1] was 0.001 µM; in assay [2], 0.0017 µM; in assay [3], 3.7 µM. Further, the EC50 in assay [4] (cAMP HTRF agonist assay) came out at 0.41 µM; in assay [5] it was 0.147 µM; in assay [6] it was 0.00069 µM; in assay [8] (cAMP HTRF agonist assay), 0.144 µM. For the same molecule, the “EP4 % I.A” value in assay [4] (cAMP HTRF agonist assay) worked out at 96%. In addition, the Emax in assay [5] is 42%; in assay [6] it was 99%; in assay [7] (CHO-K1, read-out: hIP % IA) it was 101%. The “DP1 % I.A” value in assay [5] is on record as 42%. In addition, in assay [8] (cAMP HTRF agonist assay), the “EP2 % I.A” value worked out at 110%.
